{
  "source": "patent US7385086B2",
  "about": "(priority 1997, dated 2008)",
  "tested_on": "isoniazid (INH) resistant M. tuberculosis",
  "assay_type": "cell-based, Mycobacterium tuberculosis",
  "data": [
    {"smiles": "NNC(=O)c1ccncc1", "note": "[isoniazid, reference compound]", "values": [
      {"measurement": "isoniazid resistance level", "value": "> 0.4", "unit": "µg/mL"}
    ]},
    {"smiles": "CCCCCCCCS(=O)(=O)CC(N)=O", "note": "[HIII-50, n-Octanesulphonylacetamide]", "values": [
      {"measurement": "growth inhibition", "value": "inhibits"}
    ]}
  ]
}
